Measured values from patent US9260417B2, “Therapeutic methods and compositions involving allosteric kinase inhibition” (AMITECH THERAPEUTIC SOLUTIONS, INC., priority 2010, dated 2016).

Experiments:
ARK5 = ARK5 (Homo sapiens (Human), UniProt O60285); test: KINOMEscan competitive binding assay; conditions: 10 uM
From the text: (§1) In vitro kinase screen and competitive binding assay. Sorafenib as well as test compounds were submitted to Invitrogen and screened using their SelectScreen™ Profiling Service.

BRAF(V600E) = BRAF(V600E) (Homo sapiens (Human), UniProt P15056, V600E); test: KINOMEscan competitive binding assay; conditions: 10 uM
From the text: as §1

CDK2 = CDK2 (Homo sapiens (Human), UniProt P24941); test: KINOMEscan competitive binding assay; conditions: 10 uM
From the text: as §1

CDK3 = CDK3 (Homo sapiens (Human), UniProt Q00526); test: KINOMEscan competitive binding assay; conditions: 10 uM
From the text: as §1

CDK7 = CDK7 (Homo sapiens (Human), UniProt P50613); test: KINOMEscan competitive binding assay; conditions: 10 uM
From the text: as §1

EPHA2 = EPHA2 (Homo sapiens (Human), UniProt P29317); test: KINOMEscan competitive binding assay; conditions: 10 uM
From the text: as §1

ERK2 = ERK2 (Homo sapiens (Human), UniProt P28482); test: KINOMEscan competitive binding assay; conditions: 10 uM
From the text: as §1

GSK3B = GSK3B (Homo sapiens (Human), UniProt P49841); test: KINOMEscan competitive binding assay; conditions: 10 uM
From the text: as §1

INSR = INSR (Homo sapiens (Human), UniProt P06213); test: KINOMEscan competitive binding assay; conditions: 10 uM
From the text: as §1

KIT(V559D, T670I) = KIT(V559D, T670I) (Homo sapiens (Human), UniProt P10721, T670I/V559D); test: KINOMEscan competitive binding assay; conditions: 10 uM
From the text: as §1

LIMK2 = LIMK2 (Homo sapiens (Human), UniProt P53671); test: KINOMEscan competitive binding assay; conditions: 10 uM
From the text: as §1

LKB1 = LKB1 (Homo sapiens (Human), UniProt Q15831); test: KINOMEscan competitive binding assay; conditions: 10 uM
From the text: as §1

MET = MET (Homo sapiens (Human), UniProt P08581); test: KINOMEscan competitive binding assay; conditions: 10 uM
From the text: as §1

TIE1 = TIE1 (Homo sapiens (Human), UniProt P35590); test: KINOMEscan competitive binding assay; conditions: 10 uM
From the text: as §1

TIE2 = TIE2 (Homo sapiens (Human), UniProt Q02763); test: KINOMEscan competitive binding assay; conditions: 10 uM
From the text: as §1

TRKA = TRKA (Homo sapiens (Human), UniProt P04629); test: KINOMEscan competitive binding assay; conditions: 10 uM
From the text: as §1

BRAF = BRAF (Homo sapiens (Human), UniProt P15056); test: KINOMEscan competitive binding assay; conditions: 10 uM
PIM1 = PIM1 (Homo sapiens (Human), UniProt P11309); test: KINOMEscan competitive binding assay; conditions: 10 uM
RAF1 = RAF1 (Homo sapiens (Human), UniProt P04049); test: KINOMEscan competitive binding assay; conditions: 10 uM
[1] = test system: XPA-1-RFP pancreatic tumor xenografts; test: Orthotopic pancreatic carcinoma model; type: in vivo, mice; conditions: 50 mg/kg
Description: Drug treatments were started 3 days after surgical orthotopic implantation (SOI) of XPA1-RFP tumors and tumor progression was monitored every 3 days by whole animal imaging. Scale bar=10 mm. […] Tumor surface area was calculated by adding the total pixels of both the ventral and lateral images of the tumor. *p=0.034. (FIG. 5C) Average body weight of the mice measured each day of whole animal imaging described in FIGS. 5A and 5B above. (FIG. 5D) Total weights of resected primary tumors on day 15 post (SOI), *p=0.022. (FIG. 5E) Representative fluorescent images of endothelial GFP expression (GFP expression driven by the Nestin promoter) within the XPA1-RFP tumors after resection. Images taken 15 days post SOI. Scale bar=200 μm. (FIG. 5F) Plot of tumor vessel density from images acquired as in FIG. 5E. Blood vessels imaged as in 5E were converted to length (mm) and normalized to the tumor volume (mm^3), *p=0.01.
Orthotopic human pancreatic cancer xenografts from the pancreatic cancer cell line XPA1-RFP were established in nude mice by surgical orthotopic implantation (SOI). Briefly, subcutaneous XPA1-RFP tumors in the exponential growth phase were harvested and sectioned into 1 mm^3 pieces in serum-free RPMI medium. Mice were anesthetized using 50% ketamine, 38% xylazine and 12% agepromazine maleate injected intramuscularly at a dose of 2 μl/g, and their abdominal wall was sterilized with alcohol. A small incision was then made in the right pararectal line through the skin and peritoneum. The body of the pancreas was exposed and a 1 mm^3 tumor fragment was sutured to the pancreas using a single 8-0 nylon surgical suture (Davis-Geck, Inc. Manati, Puerto Rico). The pancreas was then returned to the abdomen and the peritoneum and skin were closed in two layers using 6-0 vicryl surgical suture.
At day 3 after SOL the animals began treatment with twice-daily IP injections of either compound, 6 (50 mg/kg dose in 200 μl total volume), or vehicle control at 12 hour intervals. […] At day 12 post-SOI the animals were sacrificed and their tumors were excised, weighed, and measured in 3 dimensions in order to calculate tumor volume. The tumor volume was calculated with the formula: volume=height×width×length×0.52. […] The total vessel length for each tumor was measured using Image-J software and converted to vessel density by dividing total tumor vessel length by tumor volume. […]
RFP expressing XPA-1 pancreatic tumor xenografts were implanted into the pancreas of Nestin GFP-mice enabling detection of both developing blood vessels (GFP) and primary tumor (RFP). […] Tumor growth was monitored non-invasively by whole body imaging using the Olympus OV100 Small Animal Imaging System to detect the RFP signal from the tumor implant within the pancreas.

## CSc1nc(N)cc(Oc2ccc(-c3nnc(Nc4cccc(C(F)(F)F)c4)[nH]3)cc2)n1 [Compound 6]
ARK5
  % Control: 70%
BRAF(V600E)
  % Control: 98%
CDK2
  % Control: 87%
CDK3
  % Control: 91%
CDK7
  % Control: 97%
EPHA2
  % Control: 100%
ERK2
  % Control: 90%
GSK3B
  % Control: 90%
INSR
  % Control: 100%
KIT(V559D, T670I)
  % Control: 56%
LIMK2
  % Control: 72%
LKB1
  % Control: 100%
MET
  % Control: 94%
TIE1
  % Control: 76%
TIE2
  % Control: 88%
TRKA
  % Control: 64%
BRAF
  % Control: 91%
PIM1
  % Control: 96%
RAF1
  % Control: 52%
[1]; bid
  body weight: no weight loss
[1]; bid (vehicle 2.5)
  mean vessel length/tumor volume: 0.2 mm/mm^3
[1]; bid, from day 3, 12 days post SOI
  tumor growth: completely suppressed
[1]; resected on day 15, bid (vehicle 74.1 mg)
  average tumor weight: 26.7 mg
